The record followed here is patent publication US20120115845A1, “THERAPEUTIC AGENTS” (priority 2007, published 2012).

The target in assay [1] is T1, human GHS receptor (Homo sapiens, UniProt Q92847). The assay can be described thus: h bind IC50 (binding assay, Table 1). Conditions: human receptor; Table 1.
The target of assay [2] is T1, human GHS receptor. The assay can be described thus: Ghrelin IP1 agonist assay (IP1 HTRF). In kind it is cell-based. Further details: expressed in transfected cells; host or cells: HEK293s. Conditions: for Emax: 2 h, agonist effect as % maximal effect of GHRP-6 (5 μM), read-out: h IP1 ag %; for EC50: HEK293s cells stably expressing human GHS receptor, 2 hours at 37° C., read-out: h IP1 ag EC50. The method in brief: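 Cells: HEK293s stably expressing human GHS receptor, in stimulation buffer containing 0.02% fatty acid free BSA.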
(In general: In TR-FRET formats the signal depends on donor and acceptor labels being close together.)

T1 sequence (Q92847 whole entry): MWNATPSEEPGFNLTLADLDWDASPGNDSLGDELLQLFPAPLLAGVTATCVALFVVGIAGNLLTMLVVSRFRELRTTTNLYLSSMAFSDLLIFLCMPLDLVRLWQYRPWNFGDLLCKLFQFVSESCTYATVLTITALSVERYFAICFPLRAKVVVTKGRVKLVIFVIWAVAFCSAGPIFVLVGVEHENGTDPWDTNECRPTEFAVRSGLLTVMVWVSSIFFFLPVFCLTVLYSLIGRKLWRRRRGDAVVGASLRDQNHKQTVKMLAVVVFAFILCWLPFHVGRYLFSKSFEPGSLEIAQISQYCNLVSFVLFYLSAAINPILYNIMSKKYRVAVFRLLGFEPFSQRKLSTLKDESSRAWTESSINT

As for `CS(=O)(=O)c1ccc(C(=O)NC(=O)Nc2nc3ccc(S(C)(=O)=O)cc3s2)c(Cl)c1` [Example 113, 2-Chloro-4-methylsulfonyl-N-[(6-methylsulfonylbenzothiazol-2-yl)carbamoyl]benzamide], the IC50 (commonly the concentration at which inhibition is half-maximal) on human GHS receptor [1] amounted to 1.66 µM. Also, on human GHS receptor [2], the Emax amounted to 10.8% and the EC50 (as a rule, the concentration giving half of the maximal effect) was determined as 1.29 µM.

`CS(=O)(=O)c1ccc2nc(NC(=O)NC(=O)c3ccccc3COc3ccccc3)sc2c1` [Example 131, N-[(6-Methylsulfonylbenzothiazol-2-yl)carbamoyl]-2-(phenoxymethyl)benzamide] showed an IC50 on human GHS receptor [1] of 0.229 µM. For the same molecule, on human GHS receptor [2], the Emax turned out to be 17.5% and the EC50 came out at 0.191 µM.

For `CN1CCCC(S(=O)(=O)c2ccc3nc(NC(=O)NC(=O)c4ccccc4Cl)sc3c2)C1` (stereo not drawn) [Example 166, 2-Chloro-N-[[6-[(1-methyl-3-piperidyl)sulfonyl]benzothiazol-2-yl]carbamoyl]benzamide], the 50% inhibitory concentration (IC50) on human GHS receptor [1] is 0.28 µM. Further, on human GHS receptor [2], the Emax is 53.9% and the EC50 amounted to 0.0464 µM.

On human GHS receptor [1], `O=C(NC(=O)c1ccccc1Cl)Nc1nc2ccc(S(=O)(=O)CCNC3CCC3)cc2s1` [Example 25, 2-Chloro-N-[[6-[2-(cyclobutylamino)ethylsulfonyl]benzothiazol-2-yl]carbamoyl]benzamide] gave an IC50 of 0.189 µM. Also, on human GHS receptor [2], the Emax worked out at 34.7% and the EC50 was 0.0138 µM.

The molecule `O=C(NC(=O)c1ccccc1Cl)Nc1nc2ccc(S(=O)(=O)CCCNCCO)cc2s1` [Example 159, 2-Chloro-N-[[6-[3-(2-hydroxyethylamino)propylsulfonyl]benzothiazol-2-yl]carbamoyl]benzamide] gave an IC50 on human GHS receptor [1] of 0.0085 µM. Moreover, at human GHS receptor [2], the Emax was 51.6% and the EC50 came out at 0.0176 µM.

For `O=C(NC(=O)c1ccccc1Cl)Nc1nc2ccc(S(=O)(=O)CCN3C[C@@H]4C[C@H]3CO4)cc2s1` [Example 37, 2-Chloro-N-[[6-[2-[(1S,4S)-3-oxa-6-azabicyclo[2.2.1]hept-6-yl]ethylsulfonyl]benzothiazol-2-yl]carbamoyl]benzamide], the half-maximal inhibitory concentration (IC50) on human GHS receptor [1] is 0.234 µM. At human GHS receptor [2], the Emax amounted to 24% and the EC50 amounted to 0.0611 µM.

For the molecule `CC(C)(CN1CCCC1)S(=O)(=O)c1ccc2nc(NC(=O)NC(=O)c3cc(N4CCOCC4)ccc3Cl)sc2c1` [Example 245, 2-chloro-N-(6-(2-methyl-1-(pyrrolidin-1-yl)propan-2-ylsulfonyl)benzo[d]thiazol-2-ylcarbamoyl)-5-morpholino-benzamide], the IC50 on human GHS receptor [1] was 0.00652 µM. Also, on human GHS receptor [2], the Emax was determined as 0% and the EC50 is at least 20 µM.

The molecule `CC(C)(C)OC(=O)N1CCN(CCCS(=O)(=O)c2ccc3nc(NC(=O)NC(=O)c4ccccc4Cl)sc3c2)CC1` [Example 205, tert-Butyl 4-[3-[2-[(2-chlorobenzoyl)carbamoylamino]benzothiazol-6-yl]sulfonylpropyl]piperazine-1-carboxylate] showed a concentration for half-maximal inhibition (IC50) at human GHS receptor [1] of 0.0053 µM. For the same molecule, on human GHS receptor [2], the Emax amounted to 39.5% and the EC50 worked out at 0.002 µM.

With `COCCNCCCS(=O)(=O)c1ccc2nc(NC(=O)NC(=O)c3ccccc3Cl)sc2c1` [Example 203, 2-Chloro-N-[[6-[3-(2-methoxyethylamino)propylsulfonyl]benzothiazol-2-yl]carbamoyl]benzamide], the IC50 at human GHS receptor [1] stood at 0.0149 µM. In addition, on human GHS receptor [2], the Emax came to 29.4% and the EC50 worked out at 0.00622 µM.

`CS(=O)(=O)c1ccc2nc(NC(=O)NC(=O)c3ccc(N4CCOCC4)cc3Cl)sc2c1` [Example 115, 2-Chloro-N-[(6-methylsulfonylbenzothiazol-2-yl)carbamoyl]-4-morpholin-4-yl-benzamide] displayed a concentration for half-maximal inhibition (IC50) on human GHS receptor [1] of 0.0634 µM. For the same molecule, on human GHS receptor [2], the Emax came to 9.95% and the EC50 is 2.03 µM.

Turning to `CC1CN(CCS(=O)(=O)c2ccc3nc(NC(=O)NC(=O)c4ccccc4Cl)sc3c2)CC(C)N1` (stereo not drawn) [Example 24, 2-Chloro-N-[[6-[2-(3,5-dimethylpiperazin-1-yl)ethylsulfonyl]benzothiazol-2-yl]carbamoyl]benzamide], at human GHS receptor [1], the IC50 came to 0.0253 µM. Further, at human GHS receptor [2], the Emax worked out at 54% and the EC50 was 0.00643 µM.

At human GHS receptor [1], `CS(=O)(=O)c1ccc2nc(NC(=O)NC(=O)c3ccccc3Br)sc2c1` [Example 103, 2-Bromo-N-[(6-methylsulfonylbenzothiazol-2-yl)carbamoyl]benzamide] gave an IC50 of 0.239 µM. On human GHS receptor [2], the Emax was 20.5% and the EC50 was 0.454 µM.

At human GHS receptor [1], `CS(=O)(=O)c1ccc2nc(NC(=O)NC(=O)c3ccc(-n4cccn4)cc3Cl)sc2c1` [Example 116, 2-Chloro-N-[(6-methylsulfonylbenzothiazol-2-yl)carbamoyl]-4-pyrazol-1-yl-benzamide] came in with an IC50 of 0.036 µM. Moreover, on human GHS receptor [2], the Emax was 45.1% and the EC50 is 0.4 µM.

As to `CNCCS(=O)(=O)c1ccc2nc(NC(=O)NC(=O)c3ccccc3Cl)sc2c1` [Example 4, 2-Chloro-N-[[6-(2-methylaminoethylsulfonyl)benzothiazol-2-yl]carbamoyl]benzamide], on human GHS receptor [1], the IC50 is 0.0773 µM. Further, on human GHS receptor [2], the Emax came to 58.5% and the EC50 was found to be 0.00946 µM.

The molecule `Cc1ccc(Cl)c(C(=O)NC(=O)Nc2nc3ccc(S(C)(=O)=O)cc3s2)c1` [Example 65, 2-Chloro-5-methyl-N-(6-(methylsulfonyl)benzothiazol-2-ylcarbamoyl)benzamide] registered an IC50 on human GHS receptor [1] of 0.272 µM. At human GHS receptor [2], the Emax was 8.23% and the EC50 came to 0.081 µM.

On human GHS receptor [1], `CS(=O)(=O)c1ccc2nc(NC(=O)NC(=O)c3cccc(F)c3Cl)sc2c1` [Example 110, 2-Chloro-3-fluoro-N-[(6-methylsulfonylbenzothiazol-2-yl)carbamoyl]benzamide] returned an IC50 of 0.392 µM. On human GHS receptor [2], the Emax came out at 15.8% and the EC50 was 0.0917 µM.

On to `O=C(NC(=O)c1ccccc1Cl)Nc1nc2ccc(S(=O)(=O)C3CNC3)cc2s1` [Example 183, N-[[6-(Azetidin-3-ylsulfonyl)benzothiazol-2-yl]carbamoyl]-2-chloro-benzamide], for which the IC50 on human GHS receptor [1] was determined as 0.0067 µM. In addition, at human GHS receptor [2], the Emax was 42.1% and the EC50 amounted to 0.0138 µM.

Molecule `O=C(NC(=O)c1cc(-n2cccc2)ccc1Cl)Nc1nc2ccc(S(=O)(=O)[C@H]3CCNC3)cc2s1` [Example 77, 2-Chloro-N-[[6-[(3S)-pyrrolidin-3-yl]sulfonylbenzothiazol-2-yl]carbamoyl]-5-pyrrol-1-yl-benzamide] had an IC50 on human GHS receptor [1] of 0.0017 µM. On human GHS receptor [2], the Emax came to 0.911% and the EC50 was at least 25 µM.

In turn, `CN(C)c1cccnc1-c1ccc(Cl)c(C(=O)NC(=O)Nc2nc3ccc(S(C)(=O)=O)cc3s2)c1` [Example 247] yielded an IC50 on human GHS receptor [1] of 0.452 µM. On human GHS receptor [2], the Emax was 0% and the EC50 is at least 20 µM.

For the molecule `CCN1CCCC(S(=O)(=O)c2ccc3nc(NC(=O)NC(=O)c4ccccc4Cl)sc3c2)C1` (stereo not drawn) [Example 142, 2-Chloro-N-[[6-[(1-ethyl-3-piperidyl)sulfonyl]benzothiazol-2-yl]carbamoyl]benzamide], the IC50 on human GHS receptor [1] is 0.851 µM. Further, at human GHS receptor [2], the Emax was found to be 24.5% and the EC50 was determined as 0.0351 µM.

Molecule `CN1CCN(CCCS(=O)(=O)c2ccc3nc(NC(=O)NC(=O)c4cc(OS(C)(=O)=O)ccc4Cl)sc3c2)CC1` [Example 92, 4-Chloro-3-(6-(3-(4-methylpiperazin-1-yl)propylsulfonyl)benzothiazol-2-ylcarbamoylcarbamoyl)phenyl methanesulfonate] yielded an IC50 on human GHS receptor [1] of 0.0101 µM. Also, on human GHS receptor [2], the Emax stood at 4.99% and the EC50 was over 4.87 µM.

On human GHS receptor [1], `C[C@@H]1CN(CCCS(=O)(=O)c2ccc3nc(NC(=O)NC(=O)c4ccccc4Cl)sc3c2)C[C@H](C)N1` [Example 196, 2-Chloro-N-[[6-[3-[(3S,5R)-3,5-dimethylpiperazin-1-yl]propylsulfonyl]benzothiazol-2-yl]carbamoyl]benzamide] registered an IC50 of 0.0015 µM. Also, on human GHS receptor [2], the Emax was 79.4% and the EC50 was found to be 0.000935 µM.

With `Cc1ccn(-c2ccc(Cl)c(C(=O)NC(=O)Nc3nc4ccc(S(C)(=O)=O)cc4s3)c2)n1` [Example 56, 2-Chloro-5-(3-methyl-1H-pyrazol-1-yl)-N-(6-(methylsulfonyl)benzothiazol-2-ylcarbamoyl)benzamide], at human GHS receptor [1], the IC50 stood at 0.0101 µM. On human GHS receptor [2], the Emax is 10.8% and the EC50 is at least 25 µM.

For the molecule `CN1CCC(Oc2ccc(Cl)c(C(=O)NC(=O)Nc3nc4ccc(S(C)(=O)=O)cc4s3)c2)C1` (stereo not drawn) [Example 250, 2-chloro-5-(1-methylpyrrolidin-3-yloxy)-N-(6-(methylsulfonyl)benzo[d]thiazol-2-ylcarbamoyl) benzamide], the IC50 at human GHS receptor [1] was 3.78 µM. On human GHS receptor [2], the Emax is 6.82% and the EC50 was determined as 5.13 µM.

At human GHS receptor [1], `O=C(NC(=O)c1ccccc1Cl)Nc1nc2ccc(S(=O)(=O)[C@@H]3CCNC3)cc2s1` [Example 172, 2-Chloro-N-[[6-[(3R)-pyrrolidin-3-yl]sulfonylbenzothiazol-2-yl]carbamoyl]benzamide] registered an IC50 of 0.0283 µM. For the same molecule, at human GHS receptor [2], the Emax worked out at 44.4% and the EC50 was found to be 0.00731 µM.

For the molecule `CC(C)NCC(C)(C)S(=O)(=O)c1ccc2nc(NC(=O)NC(=O)c3cc(N4CCOCC4)ccc3Cl)sc2c1` [Example 246, 2-chloro-N-(6-(1-(isopropylamino)-2-methylpropan-2-ylsulfonyl)benzo[d]thiazol-2-ylcarbamoyl)-5-morpholino-benzamide], the IC50 at human GHS receptor [1] turned out to be 0.00208 µM. At human GHS receptor [2], the Emax came to 0% and the EC50 was at least 20 µM.

Turning to `CS(=O)(=O)c1ccc2nc(NC(=O)NC(=O)c3cc(-n4cncn4)ccc3Cl)sc2c1` [Example 67, 2-Chloro-N-(6-(methylsulfonyl)benzothiazol-2-ylcarbamoyl)-5-(1H-1,2,4-triazol-1-yl)benzamide], at human GHS receptor [1], the IC50 was 0.536 µM. On human GHS receptor [2], the Emax is 0% and the concentration for a half-maximal effect (EC50) was over 20 µM.
